According to patent US20240270810A1, “PREPARATION AND APPLICATION OF POLYPEPTIDE” (GUANGDONG RAYNOVENT BIOTECH CO., LTD., priority 2021, published 2024):

B1: polypeptide compound WX-001 (peptide)
peptide: YXEGTFTSDYSIXLDKIAQKAFIKWLIAGGPSSGAPPPS
modifications: Aib at positions 2 and 13; C-terminal amide (-NH2); side-chain amino groups of Lys 20 and Lys 24 bridged by iminodiacetic acid (from Fmoc-Ida-OH) whose nitrogen carries Intermediate A-1 (fatty acid side chain, structure only in a drawing)

Experiments:
[1] = biological target: T1, GLP-1R (Homo sapiens, UniProt P43220); experiment: In vitro GLP-1R agonistic activity test (cAMP kit); assay type: cell-based; details: HEK293 host cells
T1 construct: host or cells: HEK293
T1 sequence (P43220 24-463, species assumed): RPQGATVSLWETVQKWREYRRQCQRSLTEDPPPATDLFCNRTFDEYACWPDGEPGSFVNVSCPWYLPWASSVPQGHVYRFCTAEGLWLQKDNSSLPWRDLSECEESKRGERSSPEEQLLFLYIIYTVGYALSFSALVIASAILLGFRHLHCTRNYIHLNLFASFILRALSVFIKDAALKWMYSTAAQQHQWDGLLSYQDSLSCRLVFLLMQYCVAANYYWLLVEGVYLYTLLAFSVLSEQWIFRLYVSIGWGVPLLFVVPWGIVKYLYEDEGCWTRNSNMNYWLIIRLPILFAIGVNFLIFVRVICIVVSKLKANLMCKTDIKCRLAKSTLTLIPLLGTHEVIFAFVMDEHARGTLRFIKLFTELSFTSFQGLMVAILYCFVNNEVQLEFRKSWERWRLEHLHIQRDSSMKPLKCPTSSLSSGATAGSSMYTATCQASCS
Experimental: (§1) The cell lines were constructed by Wuxi […] (Shanghai) Co., Ltd. See details in Table 1 below. [table] [table] The test compounds were diluted at a 4-fold dilution factor in 10 points, starting from an initial concentration of 30 μM. The dilution was carried out by Bravo. • 1) 100 nL of compounds were transferred to an OptiPlate-384 plate by Echo. • 2) The OptiPlate-384 plate was centrifuged at 1000 rpm for 5 s. • 1) A GLP-1R/GIPR cell cryovial was placed in warm water at 37° C. for rapid thawing. • 2) The cell suspension was transferred into a 15 mL Transfer centrifugal tube and rinsed with 10 mL of HBSS gently. • 3) The centrifugal tube was centrifuged at 1000 rpm at room temperature for 1 min. • 4) The supernatant was discarded. • 5) The bottom cells were gently dispersed, then gently rinsed with 10 mL of HBSS, the centrifugal tube was centrifuged to settle the cells, and finally the cells were resuspended in an experimental buffer. • 6) Cell density and viability were measured by Vi-cell. • 7) The GLP-1R/GIPR cells were diluted with the experimental buffer to a concentration of 2.0*10^5/mL. • 8) […] of the diluted cell suspension was transferred into the OptiPlate-384 plate. • 9) Incubation was performed at room temperature for 30 min. • 1) 10 μL of 800 nM gradient diluted cAMP standard was added into the empty wells of the OptiPlate-384 plate. • 2) 10 μL of cAMP assay reagent was added. • 3) The OptiPlate-384 plate was covered with TopSeal-A film and incubated at room temperature for 60 min. The TopSeal-A film was removed, and readout was performed on En Vision.

[2] = biological target: T2, GIPR (Homo sapiens, UniProt P48546); experiment: In vitro GIPR agonistic activity test (cAMP kit); assay type: cell-based; details: CHO host cells
T2 construct: host or cells: CHO
T2 sequence (P48546 22-466): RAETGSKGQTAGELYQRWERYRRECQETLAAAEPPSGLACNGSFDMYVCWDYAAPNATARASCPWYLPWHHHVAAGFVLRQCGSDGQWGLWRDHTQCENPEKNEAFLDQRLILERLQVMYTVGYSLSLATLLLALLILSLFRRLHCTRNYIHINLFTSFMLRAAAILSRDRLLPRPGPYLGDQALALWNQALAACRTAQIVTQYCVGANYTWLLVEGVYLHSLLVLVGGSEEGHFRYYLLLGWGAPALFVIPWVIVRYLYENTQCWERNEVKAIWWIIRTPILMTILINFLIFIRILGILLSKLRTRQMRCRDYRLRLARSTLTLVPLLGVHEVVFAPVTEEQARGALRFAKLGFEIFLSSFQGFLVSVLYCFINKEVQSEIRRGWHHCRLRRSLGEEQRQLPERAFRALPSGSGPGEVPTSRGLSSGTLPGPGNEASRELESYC
Experimental: as §1, with “[table] [table]” left out

[3] = biological target: GLP-1R (UniProt P43220 24-463, limits assumed); experiment: cell-based or functional assay
[4] = biological target: T3, GIPR (UniProt P48546 22-466, limits assumed); experiment: cell-based or functional assay
T3 sequence (looked up): T2 sequence (P48546 22-466)

Molecule | EC50 ([1]; without 1% HSA) [nM] | EC50 ([2]; without 1% HSA) [nM] | also measured
CC[C@H](C)[C@H](NC(=O)[C@H](CC(C)C)NC(=O)[C@H](Cc1c[nH]c2ccccc12)NC(=O)[C@H](CCC(N)=O)NC(=O)[C@@H](NC(=O)[C@H](Cc1ccccc1)NC(=O)[C@H](C)NC(=O)[C@@H]1CCCCNC(=O)CN(C(=O)COCCOCCNC(=O)COCCOCCNC(=O)CC[C@H](NC(=O)CCCCCCCCCCCCCCCCCCC(=O)O)C(=O)O)CC(=O)NCCCC[C@H](NC(=O)[C@H](CCCCN)NC(=O)[C@H](CC(=O)O)NC(=O)[C@H](CC(C)C)NC(=O)C(C)(C)NC(=O)[C@@H](NC(=O)[C@H](CO)NC(=O)[C@H](Cc2ccc(O)cc2)NC(=O)[C@H](CC(=O)O)NC(=O)[C@H](CO)NC(=O)[C@@H](NC(=O)[C@H](Cc2ccccc2)NC(=O)[C@@H](NC(=O)CNC(=O)[C@H](CCC(=O)O)NC(=O)C(C)(C)NC(=O)[C@@H](N)Cc2ccc(O)cc2)[C@@H](C)O)[C@@H](C)O)[C@@H](C)CC)C(=O)N[C@@H](C)C(=O)N[C@@H](CCC(N)=O)C(=O)N1)C(C)C)C(=O)N[C@@H](C)C(=O)NCC(=O)NCC(=O)N1CCC[C@H]1C(=O)N[C@@H](CO)C(=O)N[C@@H](CO)C(=O)NCC(=O)N[C@@H](C)C(=O)N1CCC[C@H]1C(=O)N1CCC[C@H]1C(=O)N1CCC[C@H]1C(=O)N[C@@H](CO)C(N)=O [WX-006] | 0.027 | 0.26 | –
CC[C@H](C)[C@H](NC(=O)[C@H](CC(C)C)NC(=O)[C@H](Cc1c[nH]c2ccccc12)NC(=O)[C@@H]1CCCCNC(=O)CN(C(=O)COCCOCCNC(=O)COCCOCCNC(=O)CC[C@H](NC(=O)CCCCCCCCCCCCCCCCCCC(=O)O)C(=O)O)CC(=O)NCCCC[C@H](NC(=O)[C@H](CCC(N)=O)NC(=O)[C@H](C)NC(=O)[C@@H](NC(=O)[C@H](CCCCN)NC(=O)[C@H](CC(=O)O)NC(=O)[C@H](CC(C)C)NC(=O)C(C)(C)NC(=O)[C@@H](NC(=O)[C@H](CO)NC(=O)[C@H](Cc2ccc(O)cc2)NC(=O)[C@H](CC(=O)O)NC(=O)[C@H](CO)NC(=O)[C@@H](NC(=O)[C@H](Cc2ccccc2)NC(=O)[C@@H](NC(=O)CNC(=O)[C@H](CCC(=O)O)NC(=O)C(C)(C)NC(=O)[C@@H](N)Cc2ccc(O)cc2)[C@@H](C)O)[C@@H](C)O)[C@@H](C)CC)[C@@H](C)CC)C(=O)N[C@@H](C)C(=O)N[C@@H](Cc2ccccc2)C(=O)N[C@@H](C(C)C)C(=O)N1)C(=O)N[C@@H](C)C(=O)NCC(=O)NCC(=O)N1CCC[C@H]1C(=O)N[C@@H](CO)C(=O)N[C@@H](CO)C(=O)NCC(=O)N[C@@H](C)C(=O)N1CCC[C@H]1C(=O)N1CCC[C@H]1C(=O)N1CCC[C@H]1C(=O)N[C@@H](CO)C(N)=O [WX-004] | 1.86 | 1.36 | EC50 ([1]; with 1% HSA): 84.3 nM; EC50 ([2]; with 1% HSA): 21.4 nM
CC[C@H](C)[C@H](NC(=O)[C@H](CC(C)C)NC(=O)[C@H](Cc1c[nH]c2ccccc12)NC(=O)[C@@H](NC(=O)[C@@H](NC(=O)[C@H](Cc1ccccc1)NC(=O)[C@H](C)NC(=O)[C@@H]1CCCCNC(=O)CN(C(=O)COCCOCCNC(=O)COCCOCCNC(=O)CC[C@H](NC(=O)CCCCCCCCCCCCCCCCCCC(=O)O)C(=O)O)CC(=O)NCCCC[C@H](NC(=O)[C@H](CCCCN)NC(=O)[C@H](CC(=O)O)NC(=O)[C@H](CC(C)C)NC(=O)C(C)(C)NC(=O)[C@@H](NC(=O)[C@H](CO)NC(=O)[C@H](Cc2ccc(O)cc2)NC(=O)[C@H](CC(=O)O)NC(=O)[C@H](CO)NC(=O)[C@@H](NC(=O)[C@H](Cc2ccccc2)NC(=O)[C@@H](NC(=O)CNC(=O)[C@H](CCC(=O)O)NC(=O)C(C)(C)NC(=O)[C@@H](N)Cc2ccc(O)cc2)[C@@H](C)O)[C@@H](C)O)[C@@H](C)CC)C(=O)N[C@@H](C)C(=O)N[C@@H](CCC(N)=O)C(=O)N1)C(C)C)[C@@H](C)CC)C(=O)N[C@@H](C)C(=O)NCC(=O)NCC(=O)N1CCC[C@H]1C(=O)N[C@@H](CO)C(=O)N[C@@H](CO)C(=O)NCC(=O)N[C@@H](C)C(=O)N1CCC[C@H]1C(=O)N1CCC[C@H]1C(=O)N1CCC[C@H]1C(=O)N[C@@H](CO)C(N)=O [WX-008] | 0.18 | 2.74 | –
CC[C@H](C)[C@H](NC(=O)[C@H](CC(C)C)NC(=O)[C@H](Cc1c[nH]c2ccccc12)NC(=O)[C@H](CCC(=O)O)NC(=O)[C@@H](NC(=O)[C@H](Cc1ccccc1)NC(=O)[C@H](C)NC(=O)[C@@H]1CCCCNC(=O)CN(C(=O)COCCOCCNC(=O)COCCOCCNC(=O)CC[C@H](NC(=O)CC[C@H](NC(=O)CCCCCCCCCCCCCCCCC(=O)O)C(=O)O)C(=O)O)CC(=O)NCCCC[C@H](NC(=O)[C@H](CCCCN)NC(=O)[C@H](CC(=O)O)NC(=O)[C@H](CC(C)C)NC(=O)C(C)(C)NC(=O)[C@@H](NC(=O)[C@H](CO)NC(=O)[C@H](Cc2ccc(O)cc2)NC(=O)[C@H](CC(=O)O)NC(=O)[C@H](CO)NC(=O)[C@@H](NC(=O)[C@H](Cc2ccccc2)NC(=O)[C@@H](NC(=O)CNC(=O)[C@H](CCC(=O)O)NC(=O)C(C)(C)NC(=O)[C@@H](N)Cc2ccc(O)cc2)[C@@H](C)O)[C@@H](C)O)[C@@H](C)CC)C(=O)N[C@@H](C)C(=O)N[C@@H](CCC(N)=O)C(=O)N1)C(C)C)C(=O)N[C@@H](C)C(=O)NCC(=O)NCC(=O)N1CCC[C@H]1C(=O)N[C@@H](CO)C(=O)N[C@@H](CO)C(=O)NCC(=O)N[C@@H](C)C(=O)N1CCC[C@H]1C(=O)N1CCC[C@H]1C(=O)N1CCC[C@H]1C(=O)N[C@@H](CO)C(N)=O [WX-014] | 0.071 | 0.24 | –
B1 | – | – | EC50 (nM), cAMP assay on GLP-1R HEK293 cells, (+) 1% HSA [3]: 16.6 nM; EC50 (nM), cAMP assay on GLP-1R HEK293 cells, (-) 1% HSA [3]: 0.0596 nM; Ratio of EC50 (+) 1% HSA to (-) 1% HSA, cAMP assay [3]: 279; EC50 (nM), cAMP assay on GIPR CHO cells, (+) 1% HSA [4]: 16 nM; EC50 (nM), cAMP assay on GIPR CHO cells, (-) 1% HSA [4]: 0.324 nM; Ratio of EC50 (+) 1% HSA to (-) 1% HSA, cAMP assay [4]: 49.3
